The values that follow come from PubChem BioAssay (NCI).

Molecules are shown by their SMILES.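 Cells were grown in 96-well plates and exposed to each compound for 48 hours at five concentrations; endpoints were interpolated linearly between bracketing concentrations, or set to the highest concentration if not reached. GI50 is the concentration that inhibits growth by half. TGI marks complete inhibition of growth.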

Holding throughout (test): DTP human tumour cell line panel, 48 h
In assay [1] the test system is BT-549 breast.
Assay [2] concerns HCC-2998 colon.
For assay [3], the system named is MALME-3M melanoma.
For assay [4], the system named is MDA-MB-231 breast.
The subject of assay [5] is NCI-H226 lung.
For assay [6], the system named is NCI-H23 lung.
Assay [7] relates to OVCAR-4 ovarian.
Assay [8] relates to OVCAR-8 ovarian.
Assay [9] concerns SN12C renal.
Assay [10] deals with UACC-62 melanoma.

What is called GI50 is the concentration at which growth is held to half of that of the control. The term TGI denotes the concentration at which net growth stops. The low end stands for greater sensitivity of the cells, the high end for lower sensitivity of the cells. On to `COc1cc(NN=C(c2ccc(O)cc2)c2ccc(O)cc2)c([N+](=O)[O-])cc1[N+](=O)[O-]`, for which the GI50 in assay [1] is 14 µM; in assay [2] it was 14.8 µM; in [3], 17.2 µM; in assay [4], 11.4 µM; in assay [5], 23.6 µM; in [6], 13.5 µM. Besides, the GI50 was 12.2 µM in assay [7], 4.91 µM in assay [8], 11.2 µM in assay [9] and 10.6 µM in assay [10]. In addition, the TGI in assay [1] worked out at 30.2 µM; in [2], 29.8 µM; in assay [3] it was 31.6 µM; in assay [4], 25.5 µM; in assay [5], 71.6 µM; in assay [6], 34.5 µM. Also, the TGI came to 27 µM in [7], 27.5 µM in assay [8], 23.3 µM in assay [9] and 22.6 µM in assay [10].
